Assay results taken from US4027039A (priority 1975, dated 1977).
Read-outs that look alike come from different tables or passages of the source.

Columns and labels:
[1] = test system: Influenza, Ann Arbor virus; test: Influenza Ann Arbor in mice, subcutaneous; late read day 9 (Table 11), 7 (Tables 12, 14), 5 (Table 13); assay type: in vivo, mouse; conditions: total dose .05 μg
Vaccinia virus = test system: Vaccinia virus; parameters: species or system fertile eggs; conditions: various concentrations
Herpes virus [2] = test system: Herpes virus
Influenza PR 8 virus = test: Influenza PR 8 in mice, oral; schedule by table; late read day 6 (Table 37), 7 (33, 36), 8 (32, 35, 47), 10 (38); control fraction 18/20 (Table 32), 19/20 (Table 35), else 100%; assay type: in vivo, mouse
Herpes virus [3] = test: Herpes virus in chicken eggs, single dose 24 hours pre-infection; assay type: in vivo, chick embryo
[4] = test system: Influenza B Massachusetts virus; test: Influenza B Mass. in mice, oral; late read day 5 (Table 39), 7 (Table 40), 11 (Tables 61, 65); control fraction 16/20 (Table 61), else 100%; assay type: in vivo, mouse
Method: A portion of a commercially available sample of amantadine was recrystallized from isopropanol. The activity of the material against Influenza B Mass. was tested for the sample as obtained, the recrystallized portion, and the mother liquor obtained from recrystallizing the portion.

NNC(N)=O [semicarbazide]
No. animals surviving after 5-9 days [1]: 0 | effect on pox formation on the membrane (Vaccinia virus): No effect | animals survived (Herpes virus [2]; mouse, in vivo): 20 to 30% | animals protected (Herpes virus [2]; no pre-treatment, one dose level): 50% | No. animals surviving after 6-9 days (Herpes virus [2]; total dose 5 μg): 7 | No. animals surviving after 6-9 days (Herpes virus [2]; total dose .00005 μg): 5 | No. animals surviving when 100% (or given fraction) of controls are dead (Herpes virus [2]; total dose .00005 μg): 5 | No. animals surviving when 100% (or given fraction) of controls are dead (Herpes virus [2]; total dose .0005 μg): 0 | No. animals surviving after 6-9 days (Herpes virus [2]; total dose .05 μg): 5 | Survivors (Influenza PR 8 virus; total dose .000005 μg): 0 | No. animals surviving when 100% (or given fraction) of controls are dead (Influenza PR 8 virus; total dose .00005 μg): 0 | Survivors (Influenza PR 8 virus; total dose .00005 μg): 0 | No. animals surviving when 100% (or given fraction) of controls are dead (Influenza PR 8 virus; total dose .0005 μg): 0 | Survivors (Influenza PR 8 virus; total dose .0005 μg): 0 | No. animals surviving when 100% (or given fraction) of controls are dead (Influenza PR 8 virus; total dose .005 μg): 0 | Survivors (Influenza PR 8 virus; total dose .005 μg): 0 | No. dying 5-22 day (Herpes virus [3]; 2 μg): 0 | No. living longer than controls (Herpes virus [3]; 2 μg): 0 | Total deaths, 4th day (Herpes virus [3]; 2 μg): 10 | Deaths on day 2 (Herpes virus [3]; 20 μg): 1 | Deaths on day 3 (Herpes virus [3]; 20 μg): 5 | No. dying 5-22 day (Herpes virus [3]; 20 μg): 0 | No. living longer than controls (Herpes virus [3]; 20 μg): 1 | Total deaths, 4th day (Herpes virus [3]; 20 μg): 11 | Deaths on day 1 (Herpes virus [3]; .00005 μg): 4 | Deaths on day 3 (Herpes virus [3]; .00005 μg): 4 | No. dying 5-22 day (Herpes virus [3]; .00005 μg): 1 | No. living longer than controls (Herpes virus [3]; .00005 μg): 1 | Total deaths, 4th day (Herpes virus [3]; .00005 μg): 11 | Deaths on day 3 (Herpes virus [3]; .0005 μg): 6 | Deaths on day 4 (Herpes virus [3]; .0005 μg): 1 | No. dying 5-22 day (Herpes virus [3]; .0005 μg): 0 | No. hatched (Herpes virus [3]; .0005 μg): 1 | No. living longer than controls (Herpes virus [3]; .0005 μg): 1 | Total deaths, 4th day (Herpes virus [3]; .0005 μg): 11 | No. hatched (Herpes virus [3]; .005 μg): 1 | No. living longer than controls (Herpes virus [3]; .005 μg): 4 | Total deaths, 4th day (Herpes virus [3]; .005 μg): 7 | Deaths on day 1 (Herpes virus [3]; .05 μg): 1 | Deaths on day 2 (Herpes virus [3]; .05 μg): 4 | Deaths on day 3 (Herpes virus [3]; .05 μg): 6 | No. dying 5-22 day (Herpes virus [3]; .05 μg): 0 | No. living longer than controls (Herpes virus [3]; .05 μg): 1 | Total deaths, 4th day (Herpes virus [3]; .05 μg): 11 | Deaths on day 3 (Herpes virus [3]; .5 μg): 5 | Total deaths, 4th day (Herpes virus [3]; .5 μg): 9 | Total no. living longer than controls (Herpes virus [3]; all doses): 10 | No. animals surviving when 100% (Table 61: 16/20) of controls are dead ([4]; total dose .000005 μg (5 pg)): 0 | Survivors ([4]; total dose .000005 μg (5 pg)): 0 | No. animals surviving when 100% (Table 61: 16/20) of controls are dead ([4]; total dose .00005 μg (50 pg)): 0 | Survivors ([4]; total dose .00005 μg (50 pg)): 0 | No. animals surviving when 100% (Table 61: 16/20) of controls are dead ([4]; total dose .0005 μg (500 pg)): 1 | Survivors ([4]; total dose .0005 μg (500 pg)): 0 | No. animals surviving after 5 days (Table 61: 11 days) ([4]; total dose .005 μg (5 ng)): 6 | No. animals surviving when 100% (Table 61: 16/20) of controls are dead ([4]; total dose .005 μg (5 ng)): 3 | Survivors ([4]; total dose .005 μg (5 ng)): 0 | No. animals surviving after 5 days (Table 61: 11 days) ([4]; total dose .05 μg (50 ng)): 6 | No. animals surviving when 100% (Table 61: 16/20) of controls are dead ([4]; total dose .05 μg (50 ng)): 1 | Survivors ([4]; total dose .05 μg (50 ng)): 0 | No. animals surviving when 100% (Table 61: 16/20) of controls are dead ([4]; total dose .5 μg (500 ng)): 1 | Survivors ([4]; total dose .5 μg (500 ng)): 0
